Data as given in ChEMBL document CHEMBL1201862, “PubChem BioAssay data set” (2004).
One block for each compound: values may come before it. The source made the active and inactive calls.

How the values were obtained:
[1] = HEK-293T cell viability reduction – luminescence, B-cell screen hits, cytotoxicity control for BCR NF-kB inhibitor project, dose response (AID 489021); format: functional, cell-based;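 also: HEK-293T cells carrying an NF-kB luciferase reporter; cells exposed to compound for about 14 hours before viability readout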
[2] = biological target: 26S proteasome non-ATPase regulatory subunit 14 (Homo sapiens, UniProt O00487); assay: inhibition of proteasome subunit RPN11 – biochemical, fluorescence polarization, uHTS hits, confirmation (AID 602368); format: functional
[3] = biological target: 72 kDa type IV collagenase (Homo sapiens, UniProt P08253); assay: Dose Response validation of uHTS RPN11 inhibitor hits using a MMP-2 Fluorescence assay.; format: functional
[4] = biological target: Prothrombin (Bos taurus, UniProt P00735); assay: thrombin protease inhibitors – biochemical, fluorescence polarization, uHTS hits, dose response (AID 602369); format: functional
[5] = biological target: T1, SUMO-activating enzyme (Homo sapiens, UniProt Q9UBT2); assay: blockers of UBC9-mediated SUMO conjugation – biochemical, AlphaScreen, SUMOylation inhibitor project, confirmation (AID 2018); format: functional
[6] = biological target: T1, SUMO-activating enzyme; assay: blockers of SAE1/SAE2–UBC9 SUMO transfer – biochemical, HTRF, uHTS, primary screen (AID 2006); format: protein-complex assay
[7] = biological target: Mitogen-activated protein kinase kinase kinase kinase 4 (Homo sapiens, UniProt O95819); format: functional
[8] = biological target: Dual specificity protein kinase CLK4 (Homo sapiens, UniProt Q9HAZ1); format: functional
[9] = biological target: Serine/threonine-protein kinase pim-1 (Homo sapiens, UniProt P11309); format: functional
[10] = biological target: Cell division cycle 7-related protein kinase (Homo sapiens, UniProt O00311); format: functional;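 also: value obtained from a kinome-wide kinase panel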
[11] = biological target: Glycogen synthase kinase-3 beta (Homo sapiens, UniProt P49841); format: functional;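 also: value comes from a broad kinome profiling panel, with GSK3B as the panel member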
[12] = biological target: T2, Interleukin-1 receptor-associated kinase 4 (Homo sapiens, UniProt Q9NWZ3); format: functional
T2 sequence (Q9NWZ3 whole entry): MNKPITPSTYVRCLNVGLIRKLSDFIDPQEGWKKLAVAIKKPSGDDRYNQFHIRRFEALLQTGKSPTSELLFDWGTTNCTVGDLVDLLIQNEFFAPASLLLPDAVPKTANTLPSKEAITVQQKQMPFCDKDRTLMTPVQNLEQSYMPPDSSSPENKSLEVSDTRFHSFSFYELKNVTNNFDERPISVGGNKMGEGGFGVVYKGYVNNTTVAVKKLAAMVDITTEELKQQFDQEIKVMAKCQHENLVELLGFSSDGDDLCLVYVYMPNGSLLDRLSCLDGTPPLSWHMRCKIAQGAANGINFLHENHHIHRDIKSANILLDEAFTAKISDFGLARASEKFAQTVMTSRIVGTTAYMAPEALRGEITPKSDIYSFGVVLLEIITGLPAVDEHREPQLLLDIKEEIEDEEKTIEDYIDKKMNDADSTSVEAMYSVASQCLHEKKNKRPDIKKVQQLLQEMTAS

[13] = biological target: Homeodomain-interacting protein kinase 2 (Homo sapiens, UniProt Q9H2X6); format: functional;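 also: measured within a kinome-wide kinase profiling panel, HIPK2 being one panel member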
[14] = biological target: cAMP-dependent protein kinase catalytic subunit alpha (Homo sapiens, UniProt P17612); format: functional
[15] = biological target: Vascular endothelial growth factor receptor 2 (Homo sapiens, UniProt P35968); format: functional
[16] = biological target: Vascular endothelial growth factor receptor 3 (Homo sapiens, UniProt P35916); format: functional;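 also: value from a kinome-wide profiling panel, with FLT4 as the panel member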
[17] = biological target: T3, Receptor-type tyrosine-protein kinase FLT3 (Homo sapiens, UniProt P36888); format: functional;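 also: FLT3 was tested as one member of a kinome-wide kinase panel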
T3 sequence (P36888 whole entry): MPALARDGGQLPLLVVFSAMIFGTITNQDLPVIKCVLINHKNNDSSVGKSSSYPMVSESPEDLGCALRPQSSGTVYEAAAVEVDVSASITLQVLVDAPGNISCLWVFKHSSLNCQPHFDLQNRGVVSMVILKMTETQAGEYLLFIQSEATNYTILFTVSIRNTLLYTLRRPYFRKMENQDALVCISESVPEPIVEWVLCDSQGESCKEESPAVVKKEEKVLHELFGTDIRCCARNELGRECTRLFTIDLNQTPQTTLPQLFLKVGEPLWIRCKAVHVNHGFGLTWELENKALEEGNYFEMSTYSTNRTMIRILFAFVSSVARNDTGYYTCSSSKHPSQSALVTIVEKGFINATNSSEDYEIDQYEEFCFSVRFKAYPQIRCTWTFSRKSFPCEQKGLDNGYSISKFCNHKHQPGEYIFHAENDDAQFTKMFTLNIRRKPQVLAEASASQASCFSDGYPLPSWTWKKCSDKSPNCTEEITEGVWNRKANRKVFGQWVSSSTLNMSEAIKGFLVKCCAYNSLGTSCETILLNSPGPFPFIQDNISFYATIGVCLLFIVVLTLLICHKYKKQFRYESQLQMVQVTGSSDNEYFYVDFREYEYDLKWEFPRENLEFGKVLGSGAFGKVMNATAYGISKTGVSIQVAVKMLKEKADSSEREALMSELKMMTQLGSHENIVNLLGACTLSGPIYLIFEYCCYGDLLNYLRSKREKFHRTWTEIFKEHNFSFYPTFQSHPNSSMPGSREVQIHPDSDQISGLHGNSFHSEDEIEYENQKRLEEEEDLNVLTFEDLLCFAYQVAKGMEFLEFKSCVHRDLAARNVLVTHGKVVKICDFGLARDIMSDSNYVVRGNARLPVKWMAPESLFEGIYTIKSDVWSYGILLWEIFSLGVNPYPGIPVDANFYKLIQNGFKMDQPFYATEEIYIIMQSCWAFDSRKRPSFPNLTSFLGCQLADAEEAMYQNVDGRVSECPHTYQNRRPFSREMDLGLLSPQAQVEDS

[18] = biological target: Macrophage colony-stimulating factor 1 receptor (Homo sapiens, UniProt P07333); format: functional;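 also: value comes from the Navigating the Kinome screening panel, CSF1R member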
[19] = biological target: Mast/stem cell growth factor receptor Kit (Homo sapiens, UniProt P10721); format: functional;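 also: KIT entry within a kinase panel assay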
[20] = biological target: High affinity nerve growth factor receptor (Homo sapiens, UniProt P04629); format: functional;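 also: NTRK1 tested as one member of a kinome-wide profiling panel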
[21] = biological target: Vascular endothelial growth factor receptor 1 (Homo sapiens, UniProt P17948); format: functional;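 also: measured within a kinome-wide profiling panel, FLT1 as the panel member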
[22] = biological target: Proto-oncogene tyrosine-protein kinase Src (Homo sapiens, UniProt P12931); format: functional;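 also: SRC entry within a kinome-wide kinase profiling panel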
[23] = biological target: Tyrosine-protein kinase Lyn (Homo sapiens, UniProt P07948); format: functional;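 also: lyn as one member of a kinase panel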
[24] = biological target: Tyrosine-protein kinase ABL1 (Homo sapiens, UniProt P00519); format: functional
[25] = biological target: Tyrosine-protein kinase Lck (Homo sapiens, UniProt P06239); format: functional;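 also: lck was assayed as one member of a kinase panel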
[26] = biological target: Tyrosine-protein kinase Fyn (Homo sapiens, UniProt P06241); format: functional
[27] = biological target: Tyrosine-protein kinase Blk (Homo sapiens, UniProt P51451); format: functional;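 also: obtained as one member of a kinome-wide kinase assay panel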
[28] = biological target: T4, DNA dC->dU-editing enzyme APOBEC-3G (Homo sapiens, UniProt Q9HC16); assay: SAR analysis of small molecule inhibitors of APOBEC3G DNA Deaminase via a fluorescence-based single-stranded DNA deaminase assay - Set 2.; format: functional; conditions: read-out: IC50_Mean
[29] = biological target: T5, DNA dC->dU-editing enzyme APOBEC-3A (Homo sapiens, UniProt P31941); assay: SAR analysis of small molecule inhibitors of APOBEC3A DNA Deaminase via a fluorescence-based single-stranded DNA deaminase assay - Set 2.; format: functional; conditions: read-out: IC50_Mean
[30] = NIH3T3 cell viability loss – ATP luminescence, mouse fibroblasts, counter-screen, dose response (AID 2010); format: functional, cell-based;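 also: cells exposed to compound for about 90 hours before reading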
[31] = test system: HEK293; assay: optical interference in Abeta FP readout, dose response, artefact control for IDE activator project, biochemical, fluorescence polarization (AID 588442); format: functional, cell-based; conditions: Homo sapiens
[32] = biological target: T6, Insulin-degrading enzyme (Homo sapiens, UniProt P14735); assay: cellular IDE activation of Abeta substrate cleavage – fluorescence polarization, HEK cells, dose response (AID 588439); format: functional, cell-based
T6 sequence (P14735 whole entry): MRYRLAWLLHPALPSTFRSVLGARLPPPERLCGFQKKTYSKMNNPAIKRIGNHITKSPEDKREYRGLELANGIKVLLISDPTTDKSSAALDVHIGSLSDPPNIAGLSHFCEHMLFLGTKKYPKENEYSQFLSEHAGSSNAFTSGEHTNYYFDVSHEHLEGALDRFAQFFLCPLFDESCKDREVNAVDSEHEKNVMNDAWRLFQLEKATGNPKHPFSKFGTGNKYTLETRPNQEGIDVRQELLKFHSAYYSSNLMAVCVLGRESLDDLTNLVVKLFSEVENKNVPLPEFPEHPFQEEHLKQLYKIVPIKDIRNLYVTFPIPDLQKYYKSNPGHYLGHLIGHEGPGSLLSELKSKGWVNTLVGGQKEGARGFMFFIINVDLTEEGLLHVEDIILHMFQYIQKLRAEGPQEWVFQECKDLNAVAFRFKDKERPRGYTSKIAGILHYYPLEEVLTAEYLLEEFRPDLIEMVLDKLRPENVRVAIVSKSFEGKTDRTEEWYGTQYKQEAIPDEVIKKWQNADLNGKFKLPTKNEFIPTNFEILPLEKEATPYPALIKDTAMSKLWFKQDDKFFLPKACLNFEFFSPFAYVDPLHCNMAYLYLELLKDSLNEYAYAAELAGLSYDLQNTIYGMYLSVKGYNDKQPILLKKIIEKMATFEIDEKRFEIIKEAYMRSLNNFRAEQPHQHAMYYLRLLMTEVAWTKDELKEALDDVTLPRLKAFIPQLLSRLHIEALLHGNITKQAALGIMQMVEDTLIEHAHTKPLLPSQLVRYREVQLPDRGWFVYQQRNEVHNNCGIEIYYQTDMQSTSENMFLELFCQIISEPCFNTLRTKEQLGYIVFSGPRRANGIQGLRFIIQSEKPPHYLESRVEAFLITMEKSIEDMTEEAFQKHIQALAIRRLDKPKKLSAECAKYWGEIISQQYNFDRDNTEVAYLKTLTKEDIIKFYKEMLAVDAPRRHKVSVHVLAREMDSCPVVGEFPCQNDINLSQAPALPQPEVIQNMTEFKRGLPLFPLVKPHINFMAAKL

[33] = biological target: Eukaryotic translation initiation factor 4E (Mus musculus, UniProt P63073); assay: blockers of eIF4G binding by eIF4E – biochemical, TR-FRET, dose response (AID 855); format: functional;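 also: potency for disrupting eIF4E binding to eIF4GI seen as loss of FRET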
[34] = biological target: T6, Insulin-degrading enzyme; assay: recombinant IDE activation, cell-free – biochemical, fluorescence polarization, counter-screen for IDE activator project, dose response (AID 588681)
[35] = test system: HEK293; assay: membrane integrity loss in HEK cells – cell-based, fluorescence, cytotoxicity control for IDE activator project, dose response (AID 588440); format: functional; conditions: Homo sapiens;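 also: cytotoxicity by LDH release measuring loss of membrane integrity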
[36] = Trypanosoma cruzi growth suppression in host cells – NIH3T3 host cells, beta-gal luminescence, confirmation (AID 2044); format: functional, cell-based;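 also: intracellular parasites grown in NIH/3T3 mouse fibroblasts as host cells; luminescent beta-galactosidase reporter signal from transgenic T. cruzi replicating inside host cells; inhibitors lower the luminescence signal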
[37] = biological target: Protein disulfide-isomerase (Homo sapiens, UniProt P07237); assay: inhibition of PDI-driven insulin aggregation – biochemical, turbidity, absorbance, cherry-picked samples, dose response (AID 602350); format: functional
[38] = biological target: T5, DNA dC->dU-editing enzyme APOBEC-3A; assay: SAR analysis of small molecule inhibitors of APOBEC3A DNA Deaminase via a fluorescence-based single-stranded DNA deaminase assay.; format: functional; conditions: read-out: IC50_Mean
[39] = biological target: T4, DNA dC->dU-editing enzyme APOBEC-3G; assay: inhibition of APOBEC3G ssDNA deamination – biochemical, fluorescence, single-stranded DNA substrate, SAR follow-up (AID 602136); format: functional; conditions: read-out: IC50_Mean

T5 sequence (P31941 whole entry): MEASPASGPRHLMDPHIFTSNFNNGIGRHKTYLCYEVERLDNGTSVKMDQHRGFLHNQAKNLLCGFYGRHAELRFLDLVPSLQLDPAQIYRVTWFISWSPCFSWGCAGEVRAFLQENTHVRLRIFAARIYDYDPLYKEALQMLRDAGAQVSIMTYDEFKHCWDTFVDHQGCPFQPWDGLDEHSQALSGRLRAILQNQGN
Chain of Tyrosine-protein kinase Lyn (P07948 whole entry): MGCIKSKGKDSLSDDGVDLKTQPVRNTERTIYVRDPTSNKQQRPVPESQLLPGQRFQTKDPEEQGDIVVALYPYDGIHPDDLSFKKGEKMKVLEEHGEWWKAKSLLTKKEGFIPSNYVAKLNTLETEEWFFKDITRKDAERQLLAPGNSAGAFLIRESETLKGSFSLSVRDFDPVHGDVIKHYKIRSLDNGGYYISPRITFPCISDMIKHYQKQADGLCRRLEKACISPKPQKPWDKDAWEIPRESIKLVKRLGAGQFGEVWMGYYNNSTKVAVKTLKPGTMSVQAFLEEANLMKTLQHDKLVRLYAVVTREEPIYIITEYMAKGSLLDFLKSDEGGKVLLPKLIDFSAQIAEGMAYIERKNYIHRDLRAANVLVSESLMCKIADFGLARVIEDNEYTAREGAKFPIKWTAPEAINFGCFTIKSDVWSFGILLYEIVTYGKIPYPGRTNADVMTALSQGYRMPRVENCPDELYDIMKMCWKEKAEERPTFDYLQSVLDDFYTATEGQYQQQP
T1 sequence (Q9UBE0 whole entry): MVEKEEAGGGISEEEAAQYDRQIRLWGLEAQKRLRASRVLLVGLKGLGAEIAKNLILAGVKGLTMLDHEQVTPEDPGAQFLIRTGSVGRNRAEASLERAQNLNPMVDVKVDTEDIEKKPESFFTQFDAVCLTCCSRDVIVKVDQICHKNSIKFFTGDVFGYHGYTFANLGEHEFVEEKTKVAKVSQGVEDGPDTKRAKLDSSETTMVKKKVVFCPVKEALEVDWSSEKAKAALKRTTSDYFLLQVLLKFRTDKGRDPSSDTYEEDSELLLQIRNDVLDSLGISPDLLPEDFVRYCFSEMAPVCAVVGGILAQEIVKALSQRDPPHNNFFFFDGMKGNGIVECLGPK
T1 sequence (Q9UBT2 whole entry): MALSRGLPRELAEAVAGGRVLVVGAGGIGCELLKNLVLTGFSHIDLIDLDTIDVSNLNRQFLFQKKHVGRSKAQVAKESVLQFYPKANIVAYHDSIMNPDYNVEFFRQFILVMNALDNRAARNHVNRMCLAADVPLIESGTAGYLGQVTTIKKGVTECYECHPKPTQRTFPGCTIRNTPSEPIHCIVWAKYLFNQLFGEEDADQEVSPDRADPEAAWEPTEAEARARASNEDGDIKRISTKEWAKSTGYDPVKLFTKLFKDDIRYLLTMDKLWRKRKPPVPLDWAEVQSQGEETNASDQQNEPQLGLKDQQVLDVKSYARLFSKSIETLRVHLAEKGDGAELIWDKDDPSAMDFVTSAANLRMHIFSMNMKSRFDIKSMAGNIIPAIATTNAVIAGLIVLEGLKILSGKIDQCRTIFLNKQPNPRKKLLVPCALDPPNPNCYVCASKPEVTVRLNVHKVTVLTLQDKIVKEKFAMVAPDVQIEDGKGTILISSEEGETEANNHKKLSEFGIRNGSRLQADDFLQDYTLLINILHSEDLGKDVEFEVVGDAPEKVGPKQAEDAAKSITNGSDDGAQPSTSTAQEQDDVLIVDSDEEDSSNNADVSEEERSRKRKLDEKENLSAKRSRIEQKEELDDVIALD
T4 sequence (Q9HC16 whole entry): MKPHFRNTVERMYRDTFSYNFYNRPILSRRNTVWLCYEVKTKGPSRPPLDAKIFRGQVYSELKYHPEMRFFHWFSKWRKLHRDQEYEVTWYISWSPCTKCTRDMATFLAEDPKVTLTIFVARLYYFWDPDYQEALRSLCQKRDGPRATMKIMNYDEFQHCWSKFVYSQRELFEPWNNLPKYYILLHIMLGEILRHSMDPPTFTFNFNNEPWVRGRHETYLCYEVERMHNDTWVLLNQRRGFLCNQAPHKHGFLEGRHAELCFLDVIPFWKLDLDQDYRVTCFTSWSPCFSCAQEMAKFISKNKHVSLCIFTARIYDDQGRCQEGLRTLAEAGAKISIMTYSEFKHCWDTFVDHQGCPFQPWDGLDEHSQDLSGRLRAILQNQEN
Chain of Tyrosine-protein kinase Lck (P06239 whole entry): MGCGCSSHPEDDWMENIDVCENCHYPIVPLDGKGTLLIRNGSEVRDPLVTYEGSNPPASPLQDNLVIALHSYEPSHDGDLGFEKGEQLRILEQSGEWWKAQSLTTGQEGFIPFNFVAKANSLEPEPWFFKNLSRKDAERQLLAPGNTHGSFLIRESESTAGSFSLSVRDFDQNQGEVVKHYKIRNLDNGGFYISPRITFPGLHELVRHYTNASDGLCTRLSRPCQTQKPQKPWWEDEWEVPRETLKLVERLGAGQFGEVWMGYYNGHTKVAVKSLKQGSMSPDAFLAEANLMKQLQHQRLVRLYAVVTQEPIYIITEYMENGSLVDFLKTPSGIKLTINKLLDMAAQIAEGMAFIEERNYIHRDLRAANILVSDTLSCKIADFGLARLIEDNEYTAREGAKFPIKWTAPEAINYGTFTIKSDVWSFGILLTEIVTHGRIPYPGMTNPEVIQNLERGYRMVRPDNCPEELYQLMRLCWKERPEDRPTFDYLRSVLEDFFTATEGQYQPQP
Chain of Glycogen synthase kinase-3 beta (P49841 whole entry): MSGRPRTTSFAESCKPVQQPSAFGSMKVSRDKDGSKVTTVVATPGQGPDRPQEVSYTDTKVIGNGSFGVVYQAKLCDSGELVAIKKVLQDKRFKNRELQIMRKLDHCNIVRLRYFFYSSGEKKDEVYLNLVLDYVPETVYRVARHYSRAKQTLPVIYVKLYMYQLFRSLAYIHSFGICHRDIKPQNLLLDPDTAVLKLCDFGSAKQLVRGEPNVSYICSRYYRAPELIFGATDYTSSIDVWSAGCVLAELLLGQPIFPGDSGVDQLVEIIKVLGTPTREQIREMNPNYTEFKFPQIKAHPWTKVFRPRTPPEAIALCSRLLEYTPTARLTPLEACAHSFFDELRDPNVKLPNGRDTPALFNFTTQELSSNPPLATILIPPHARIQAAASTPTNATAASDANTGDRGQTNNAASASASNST
Chain of Tyrosine-protein kinase Fyn (P06241 whole entry): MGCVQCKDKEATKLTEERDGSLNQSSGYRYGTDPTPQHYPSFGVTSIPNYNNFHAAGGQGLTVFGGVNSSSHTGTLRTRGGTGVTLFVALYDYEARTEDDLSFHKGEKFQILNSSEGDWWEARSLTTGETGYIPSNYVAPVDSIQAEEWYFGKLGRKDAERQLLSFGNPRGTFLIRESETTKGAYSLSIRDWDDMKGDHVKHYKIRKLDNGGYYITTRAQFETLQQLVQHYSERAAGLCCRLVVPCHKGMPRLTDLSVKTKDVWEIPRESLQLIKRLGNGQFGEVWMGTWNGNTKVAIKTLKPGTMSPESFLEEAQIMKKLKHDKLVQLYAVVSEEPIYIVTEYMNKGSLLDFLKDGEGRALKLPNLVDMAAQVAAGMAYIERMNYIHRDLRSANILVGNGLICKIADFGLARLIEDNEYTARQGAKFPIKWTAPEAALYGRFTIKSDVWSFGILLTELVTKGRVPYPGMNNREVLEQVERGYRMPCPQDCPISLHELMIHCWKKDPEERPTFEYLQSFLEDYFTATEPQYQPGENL
Chain of Tyrosine-protein kinase ABL1 (P00519 whole entry): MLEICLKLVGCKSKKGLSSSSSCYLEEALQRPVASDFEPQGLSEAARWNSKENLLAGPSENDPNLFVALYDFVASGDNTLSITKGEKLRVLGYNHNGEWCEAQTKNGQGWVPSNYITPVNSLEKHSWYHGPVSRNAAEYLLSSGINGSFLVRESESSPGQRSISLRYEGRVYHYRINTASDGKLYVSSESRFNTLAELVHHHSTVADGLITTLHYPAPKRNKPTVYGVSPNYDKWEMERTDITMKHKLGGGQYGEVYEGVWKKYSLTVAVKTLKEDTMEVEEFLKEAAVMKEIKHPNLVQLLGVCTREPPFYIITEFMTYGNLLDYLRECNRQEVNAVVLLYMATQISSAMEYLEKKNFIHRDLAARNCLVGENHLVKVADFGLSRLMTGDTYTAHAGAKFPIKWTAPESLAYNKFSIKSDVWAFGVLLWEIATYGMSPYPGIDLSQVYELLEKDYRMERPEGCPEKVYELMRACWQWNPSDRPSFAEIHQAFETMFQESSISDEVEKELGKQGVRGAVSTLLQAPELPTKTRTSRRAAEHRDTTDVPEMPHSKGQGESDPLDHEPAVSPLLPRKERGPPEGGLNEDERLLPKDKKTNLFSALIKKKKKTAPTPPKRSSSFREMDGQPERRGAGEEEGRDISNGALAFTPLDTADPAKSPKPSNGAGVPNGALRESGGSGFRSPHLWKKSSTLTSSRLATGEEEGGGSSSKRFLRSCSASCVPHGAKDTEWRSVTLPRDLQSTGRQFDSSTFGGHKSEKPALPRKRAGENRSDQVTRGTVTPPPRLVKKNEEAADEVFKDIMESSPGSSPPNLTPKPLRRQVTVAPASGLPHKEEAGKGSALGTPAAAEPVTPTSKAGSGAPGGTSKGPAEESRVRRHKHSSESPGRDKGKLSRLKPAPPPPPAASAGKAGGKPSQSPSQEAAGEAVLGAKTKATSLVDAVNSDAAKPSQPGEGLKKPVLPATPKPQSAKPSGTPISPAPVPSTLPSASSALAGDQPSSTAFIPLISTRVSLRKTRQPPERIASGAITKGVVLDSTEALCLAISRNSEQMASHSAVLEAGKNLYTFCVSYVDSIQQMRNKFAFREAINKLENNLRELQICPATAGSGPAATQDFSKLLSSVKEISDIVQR
Chain of Serine/threonine-protein kinase pim-1 (P11309 whole entry): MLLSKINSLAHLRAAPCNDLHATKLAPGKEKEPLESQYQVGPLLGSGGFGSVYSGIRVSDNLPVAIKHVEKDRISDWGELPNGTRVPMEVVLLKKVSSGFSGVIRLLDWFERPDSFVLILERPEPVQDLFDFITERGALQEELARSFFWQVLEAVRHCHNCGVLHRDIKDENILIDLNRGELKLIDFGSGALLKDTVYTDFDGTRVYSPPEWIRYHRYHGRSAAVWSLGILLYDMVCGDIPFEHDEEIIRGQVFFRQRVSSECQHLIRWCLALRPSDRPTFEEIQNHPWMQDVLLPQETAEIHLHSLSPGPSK

SMILES: CCc1ccc(/C=C2/SC(=S)N(CCC(=O)Nc3ccc(C(=O)O)cc3)C2=O)cc1
IC50 [1]: > 80000 nM (inactive)
IC50 [2]: 18100 nM (active)
IC50 [3]: > 100000 nM (inactive)
IC50 [4]: 51700 nM (active)
IC50 [5]: 4150 nM (active)
IC50 [6]: 14100 nM (active)

SMILES: Cc1c(-c2ccnc3cc(C(=O)O)nn23)cnn1C
IC50 [28]: > 99000 nM (inactive)
IC50 [29]: 88900 nM (inactive)

SMILES: CCN1CCN(CCNC(=O)c2ccc(/C=C3/Sc4ccccc4N(Cc4cccc(Cl)c4)C3=O)cc2)CC1
EC50 [30]: 8470 nM (active)
EC50 [31]: > 55900 nM (inactive)
EC50 [32]: > 54700 nM (inactive)
IC50 [33]: 50000 nM (inactive)
EC50 [34]: 53400 nM (inactive)
IC50 [35]: 19500 nM (inactive)
EC50 [36]: 1410 nM (active)

SMILES: CCCc1nnc2c3c4c(sc3ncn12)CCCC4
IC50 [38]: > 99000 nM (inactive)
IC50 [39]: > 99000 nM (inactive)

Results, then the compound that gave them:

Ki [7]: 100 nM (active)
Ki [8]: 5.01 nM (active)
Ki [9]: 25.1 nM (active)
Ki [10]: 5.01 nM (active)
Ki [11]: 2.51 nM (active)
Ki [12]: 6310 nM (active)
Ki [13]: 20 nM (active)
Ki [14]: 3980 nM (active)
SMILES: O=C(NCc1ccccc1)c1c[nH]n2c(=O)cc(-c3ccncc3)nc12

Ki [15]: 3.16 nM (active)
pKi [15]: 8.5
Ki [16]: 3.16 nM (active)
pKi [16]: 8.5
Ki [17]: 1 nM (active)
pKi [17]: 9
Ki [18]: 2 nM (active)
pKi [18]: 8.7
Ki [19]: 0.794 nM (active)
pKi [19]: 9.1
Ki [20]: 1260 nM (active)
pKi [20]: 5.9
Ki [21]: 0.631 nM (active)
pKi [21]: 9.2
Ki [22]: 501 nM (active)
Ki [23]: 158 nM (active)
pKi [23]: 6.8
Ki [24]: 501 nM (active)
pKi [24]: 6.3
Ki [25]: 100 nM (active)
pKi [25]: 7
Ki [26]: 398 nM (active)
pKi [26]: 6.4
Ki [27]: 200 nM (active)
pKi [27]: 6.7
SMILES: Nc1n[nH]c2cccc(-c3ccc(NC(=O)Nc4cccc(Cl)c4)c(F)c3)c12

Ki [7]: 3.98 nM (active)
Ki [9]: 1580 nM (active)
Ki [10]: 2.51 nM (active)
Ki [11]: 200 nM (active)
Ki [12]: 1260 nM (active)
Ki [13]: 79.4 nM (active)
Ki [14]: 158 nM (active)
SMILES: OCCNc1cc(-c2c[nH]c3ncccc23)cc(Cl)n1

AC50 [37]: 19500 nM (active)
SMILES: NNC(=O)c1cc(-c2ccc(O)cc2)nc2ccc(Br)cc12
